This data set has as its system rodent lifetime carcinogenesis bioassay, tumor incidence TD50. Description: carcinogenic potency in animals, long-term in vivo studies, CPDB compilation (AID 1745844). The note with it: rat, in feed.

The structures appear in SMILES notation. Several values for one entry are separate records, joined by “and”; a condition that tells them apart may be missing. Identical values can stand only once.

In the case of `Cc1cc(C)c(N=Nc2c(O)c(S(=O)(=O)O)cc3cc(S(=O)(=O)O)ccc23)cc1C`, the TD50 reads like this: (strain Bethesda black, both sexes, site: liver, lesion: carcinoma, dosed 104 weeks, study length 104 weeks) 2480 mg/kg/day; (strain Bethesda black, both sexes, site: liver, lesion: hepatocellular tumor, benign, dosed 104 weeks, study length 104 weeks) 3540 mg/kg/day; (strain Bethesda black, both sexes, site: liver, lesion: nodular hyperplasia, dosed 104 weeks, study length 104 weeks) 3040 mg/kg/day; (strain Bethesda black, both sexes, site: liver, lesion: several types, types named in the paper, dosed 104 weeks, study length 104 weeks) 746 mg/kg/day; (strain Not specified, females, site: bile duct, lesion: adenoma, dosed 65 weeks, study length 65 weeks) 1570 mg/kg/day; (strain Not specified, females, site: liver, lesion: carcinoma, dosed 65 weeks, study length 65 weeks) 1990 mg/kg/day. In addition, the TD50 is, setting by setting: (strain Not specified, males, site: bile duct, lesion: adenoma, dosed 65 weeks, study length 65 weeks) 755 mg/kg/day; (strain Not specified, males, site: liver, lesion: carcinoma, dosed 65 weeks, study length 65 weeks) 1240 mg/kg/day; (strain Osborne-Mendel, both sexes, site: any site (literature study), lesion: malignant tumor, dosed 104 weeks, study length 104 weeks) 12900 mg/kg/day; (strain Osborne-Mendel, both sexes, site: liver, lesion: carcinoma, dosed 104 weeks, study length 104 weeks) 7540 mg/kg/day; (strain Osborne-Mendel, both sexes, site: liver, lesion: hepatocellular tumor, benign, dosed 104 weeks, study length 104 weeks) 909 mg/kg/day; (strain Osborne-Mendel, both sexes, site: liver, lesion: nodular hyperplasia, dosed 104 weeks, study length 104 weeks) 639 mg/kg/day. Further, the TD50 by setting is: (strain Wistar, both sexes, site: liver, lesion: one or several types, types not named, dosed 65 weeks, study length 65 weeks) 225 mg/kg/day and 394 mg/kg/day; (strain Wistar, both sexes, site: liver, lesion: one or several types, types not named, dosed 70 weeks, study length 70 weeks) 314 mg/kg/day and 420 mg/kg/day.

The term TD50 denotes the dose at which the toxic effect under study appears in half of the subjects.

The values are drawn from PubChem BioAssay AID1745844 (Carcinogenic Potency Database (CPDB), 2022).
